Here are results for 13 molecules from patent US5175162A, “Thiophene compounds and their pharmaceutical uses” (Yoshitiomi Pharmaceutical Industries Ltd., priority 1989, dated 1992).

One assay is described as follows: Anti-bicuculline action. The class given is in vivo, male ddY mice. The note with it: Mus musculus; (+) bicuculline 0.6 mg/kg i.v. 1 hour after oral administration; prevention of tonic extention; read-out: Antibicuculline effect ED50. Here is the method: The anti-bicuculline action of the test compounds was done according to the method reported in Life Science, vol. 21, 1779 (1977).
The test was carried out using groups of 7-14 male ddY mice weighing 20-25 g. The animals were challenged with (+) bicuculline (0.6 mg/kg i.v.) 1 hour after the oral administration of the test compounds. The ED50 values were calculated by the probit method as the dose which prevent the tonic extention in half of the animals.

The target of assay [1] is benzodiazepine receptors. The experiment in a line: 3H-diazepam (3H-DZP) binding assay, displacement at benzodiazepine receptors. Also noted: species or system Wistar rats (cerebral cortex). The note with it: tritiated diazepam 2 nM, 0° C., 20 min; read-out: Affinity for BZP receptors Ki. The procedure: ^3 H-DZP binding assay was carried out according to the previously described method in Life Science, vol. 20, 2101 (1977).
The crude cynaptosomal fraction prepared from the cerebral cortex of Wistar rats aged 9-10 weeks was suspended in 50 mM Tris-hydrochloric acid buffer (pH 7.4) containing 120 mM sodium chloride and 5 mM potassium chloride. These suspensions were used for the following experiment.
The reaction was started by the addition of synaptosomal suspension to the solution containing tritiated diazepam (final concentration is 2 nM) and a known concentration of test compounds at 0° C. for 20 min. The binding was stopped by the filtration under vacuum through Whatman GF/B filters and the filters were immediately washed with the above-mentioned buffer. The radioactivity on the filters was measured by a liquid scintillation counter.
The binding affinities of the compound of the present invention for benzodiazepine receptors are evaluated from its displacement ability for tritiated diazepam at its binding site, which is represented as Ki value (nM).

Assay [2] can be described thus: Effects on seizure induced by maximal electroshock (anti-MES action). The note with it: 1 hour before MES. The class given is in vivo, male ddY mice. The procedure: The test was carried out using groups of five male ddY mice. The animals were challenged with a maximal electroshock (MES, AC 2000 V, 12.5 mA, 0.2 sec) delivered through bilatesal corneal electrodes 1 hour after the oral or intraperitoneal administration of the test compounds. Antagonism of MES-induced seizure was defined as the absence of the tonic extention.

Assay [3] can be described thus: Antianxiety effect (Vogel type conflict test). The format is in vivo, Wistar rats. The note with it: Rattus norvegicus, po; orally 1 hr before test; P<0.05 vs 0.5% MC control; read-out: Antianxiety effect MED (minimum effective dose). From the text: The experimental procedure used modified the method of Vogel et al (1971). Wistar rats were used. They were deprived of water for 72 hr before the test. The rats were placed in a plexiglas conflict test box (light compartment: 38×38×20 cm, dark compartment: 10×10×20 cm). A water bottle with a stainless steel spout was fitted to the middle of the outside, so that the spout extended 3 cm into the box at a height of 10 cm above the grid floor. A drinkometer circuit (Ohara Inc., Nihon Koden) was connected with the spout and the number of licks were counted. The rat was placed into the apparatus where an electric shock (0.2-0.3 mA, 0.3 sec) was given once every 20th lick. After the rat received the first electric shock, the number of shocks were recorded during the subsequent 3 min test period. The test compounds were administered orally 1 hr before the test. The minimum effective dose (MED) was defined as the lowest dose producing a statistically significant difference between 0.5% MC-treated (control) and test drug treated punished responses (One-way ANOVA test; P<0.05).

Assay [4] has as its system benzodiazepine receptors. The note with it: U.S. Pat. No. 4,849,421; cited from earlier work.

Structures are written as SMILES.

In the case of `CCCc1cc2c(s1)[S+]([O-])CCc1cc(=O)n(-c3ccc(Cl)cc3)nc1-2` (centres unmarked) [Example 70, 2-(4-Chlorophenyl)-9-propyl-5,6-dihydrothienol[2',3':2,3]thiepino[4,5-c]pyridazin-3(2H)-one 7-oxide], in “Anti-bicuculline action”, the 50% effective dose (ED50) was 0.62 mg/kg. The Ki on benzodiazepine receptors [1] was found to be 0.62 nM.
In the same order, the values of `O=c1cc2c(nn1-c1ccc(Cl)cc1)-c1cc(Br)sc1S(=O)(=O)CC2` [Example 65, 9-Bromo-2-(4-chlorophenyl)-5,6-dihydrothieno[2',3':2,3]thiepino[4,5-c]pyridazin-3(2H)-one 7,7-dioxide] are 1.4 mg/kg and 0.12 nM.
As for `CCc1cc2c(s1)SCCc1cc(=O)n(-c3ccc(OC)cc3)nc1-2` [Example 58, 9-ethyl-2-(4-methoxyphenyl)-5,6-dihydrothieno[2',3':2,3]thiepino[4,5-c]pyridazin-3(2H)-one], in “Anti-bicuculline action”, the median effective dose (ED50) was determined as 0.4 mg/kg. Besides, the inhibition constant Ki at benzodiazepine receptors [1] came to 0.56 nM.
With `CCc1cc2c(s1)[S+]([O-])CCc1cc(=O)n(-c3ccc(Cl)cc3)nc1-2` (centres unmarked) [Example 25, 2-(4-chlorophenyl)-9-ethyl-5,6-dihydrothieno[2',3':2,3]thiepino[4,5-c]pyridazin-3(2H)-one 7-oxide], the 50% effective dose (ED50) in “Anti-bicuculline action” worked out at 0.66 mg/kg. For the same molecule, the “Inhibitory rate (anti-MES)” value in assay [2] (30 mg/kg i.p.) is reported as 80%. For the same molecule, on benzodiazepine receptors [1], the Ki stood at 1.4 nM.
`CCCc1cc2c(s1)SCCc1cc(=O)n(-c3ccc(Cl)cc3)nc1-2` [Example 69, 2-(4-Chlorophenyl)-9-propyl-5,6-dihydrothieno[2',3':2,3]thiepino[4,5-c]pyridazin-3(2H)-one]: the “Inhibitory rate (anti-MES)” value in assay [2] (30 mg/kg i.p.) was found to be 80%.
On to `CCc1cc2c(s1)S(=O)(=O)CCc1cc(=O)n(-c3ccc(OC)cc3)nc1-2` [Example 64, 9-Ethyl-2-(4-methoxyphenyl)-5,6-dihydrothieno[2',3':2,3]thiepino[4,5-c]pyridazin-3(2H)-one 7,7-dioxide], for which the 50% effective dose (ED50) in “Anti-bicuculline action” turned out to be 1.4 mg/kg. Also, on benzodiazepine receptors [1], the inhibitory constant (Ki) worked out at 0.44 nM.
The matching figures for `O=c1cc2c(nn1-c1ccc(Cl)cc1)-c1cc(Br)sc1[S+]([O-])CC2` (centres unmarked) [Example 26, 9-bromo-2-(4-chlorophenyl)-5,6-dihydrothieno[2',3':2,3]thiepino[4,5-c]pyridazin-3(2H)-one 7-oxide]: 0.56 mg/kg and 1.4 nM.
Regarding `CCCc1cc2c(s1)S(=O)(=O)CCc1cc(=O)n(-c3ccc(Cl)cc3)nc1-2` [Example 71, 2-(4-Chlorophenyl)-9-propyl-5,6-dihydrothieno[2',3':2,3]thiepino[4,5-c]pyridazin-3(2H)-one 7,7-dioxide], in assay [2] (30 mg/kg i.p.), the “Inhibitory rate (anti-MES)” value was 100%.
For the molecule `O=C1CC2CCSc3sccc3C2=NN1c1ccc(Cl)cc1` (centres unmarked) [Example 14], the “Inhibitory rate (anti-MES)” value in assay [2] (30 mg/kg i.p.) is recorded as 100%; in assay [2] (30 mg/kg p.o.), 40%; in assay [2] (100 mg/kg p.o.), 100%.
In the case of `CCc1cc2c(s1)SCCc1cc(=O)n(-c3ccc(Cl)cc3)nc1-2` [Example 22, 2-(4-chlorophenyl)-9-ethyl-5,6-dihydrothieno[2',3':2,3]thiepino[4,5-c]pyridazin-3(2H)-one], the 50% effective dose (ED50) in the assay “Anti-bicuculline action” is 0.49 mg/kg. Moreover, the Ki on benzodiazepine receptors [1] is 1.8 nM.
In the case of `CC(O)c1cc2c(s1)S(=O)(=O)CCc1cc(=O)n(-c3ccc(Cl)cc3)nc1-2` (centres unmarked) [Example 50, 2-(4-chlorophenyl)-9-(1-hydroxyethyl)-5,6-dihydrothieno[2',3':2,3]thiepino[4,5-c]pyridazin-3(2H)-one 7,7-dioxide], the median effective dose (ED50) in the assay “Anti-bicuculline action” amounted to 0.87 mg/kg. Further, the Ki on benzodiazepine receptors [1] is 0.97 nM.
Consider `CCc1cc2c(s1)S(=O)(=O)CCc1cc(=O)n(-c3ccc(Cl)cc3)nc1-2` [Example 28, 2-(4-Chlorophenyl)-9-ethyl-5,6-dihydrothieno[2',3':2,3]thiepino[4,5-c]pyridazin-3(2H)-one 7,7-dioxide], for which the 50% effective dose (ED50) in “Anti-bicuculline action” was 0.23 mg/kg. On benzodiazepine receptors [1], the Ki was 0.63 nM. Moreover, the minimal effective dose in assay [3] was 2.5 mg/kg.
For the molecule `O=c1cc2c(nn1-c1ccc(Cl)cc1)-c1ccccc1SCC2` [2-(4-chlorophenyl)-5,6-dihydro[1]benzothiepino[5,4-c]pyridazin-3(2H)-one], the “activity against BZP receptors” value with benzodiazepine receptors [4] is given as “partial agonistic activity”.
